Type in all cases: cell-based, human
The subject of data set [1] is caspase-3/7 in MCF-7 cells. Nature of the data set: Caspase 3/7 expression, FLICA (FAM-DEVD-FMK) flow cytometry. Particulars: MCF-7, IC25 concentration, 24 h. The procedure:
(§1) The expression of caspase-3/7 in MCF-7 and MCF-12A cells was determined using the VybrantTM FAM™ Caspase-3 and Caspase-7 Assay Kit (Cat# V35118) (Thermo Fisher Scientific, Ireland). Cells were seeded at a density of 1 × 10^5 in T25 flasks and incubated in routine conditions for 24 h. […] Post-exposure, the cells were harvested for staining.
(§2) Flow cytometry data analysis was performed with the CytExpert package (Ver. 2.4) (Beckman Coulter, USA) and Microsoft^Ⓡ Excel (USA). The mean MFI and percentage cells were calculated using these packages, followed by one-way ANOVA analysis with post hoc Bonferroni correction using GraphPad Prism (Ver. 9.4) (GraphPad, USA).
(§3) The expression of caspase-3/7 was analysed in MCF-7 and MCF-12A cells using fluorescent labelled inhibitors of caspase (FLICA): FAM-DEVD-FMK. […] Following the apoptosis induction study, it was of interest to determine whether the complexes were stimulating the executioner caspases triggering the irreversible proteolytic degradation of cells, culminating in cell death. […] These three complexes were selected based on their structural similarities, while incorporating alternative metal centres.

The test system of data set [2] is caspase-3/7 in MCF-12A cells. The description is as above. Particulars: IC25 concentration, 24 h. Here is the method: as §1, §2, §3
The test system of a further data set is MCF-12A cells. The experiment in a line: Detection of reactive oxygen species with H2DCFDA. Particulars: 0.78 μM to 50 μM, over a 6-h period, fold-change compared to the negative control. Here is the method: The production of reactive oxygen species (ROS) was detected in MCF-7 and MCF12A cells using the cell-permeant dye 2',7'- dichlorodihydrofluorescein diacetate (H2DCFDA) (Thermo Fisher Scientific, Ireland) (Cat# D399). Cells were seeded at a density of 1 × 10^4 in 96 well plates and incubated for 24 h. Post-incubation, the media was removed, and cells were washed with PBS. A 10 μM DCFH-DA working solution was prepared using cell culture media, and the cells were incubated with 100 μl of the solution in the dark for 30 min. […] Fluorescent measurements were recorded at 15 min, 30 min, 1 h, and subsequently every hour up to 6 h using a Varioskan Lux™ multimode microplate reader (Thermo Fisher Scientific, Ireland) at an excitation wavelength of 495 nm and emission of 527 nm. The assay was repeated three independent times, using three replicates per plate.
The cells were treated with a concentration range from 0.78 μM to 50 μM, and the response was measured over a 6-h period. This facilitated the evaluation of whether there was a time and/or concentration dependent response from the cells. Hydrogen peroxide (H2O2) was used as a positive control. ROS production is presented as fold-change compared to the negative control.

A short description of data set [3]: In vitro cytotoxicity assessment, alamar blue assay, 24-h exposure. Particulars: human, MCF-12A cells; MCF-12A, 24-h exposure, 50% reduction in metabolic activity, mean ± SD (N = 3); read-out: Cytotoxic activity IC50 ± SD. Here is the method:
The MCF-7 (human breast cancer) and MCF-12A (non-tumourigenic human breast) cell lines were obtained from the Technological University Dublin (TUDublin, City Campus) internal cell bank and commercially from the American Type Culture Collection (ATCC), respectively. Both cell lines were cultured using Dulbecco’s Modified Eagle Medium/Nutrient Mixture F-12 Ham (DMEM-F12) (Sigma, Ireland) (Cat# D6421) media. The MCF-7 media was supplemented with 10% Foetal Bovine Serum (Sigma, Ireland) (Cat# F7524) and 1% L-Glutamine (Sigma, Ireland) (Cat# 592020C). The MCF-12A media was supplemented with 5% Equine Serum (Sigma, Ireland) (Cat# H0146) 1.25% L-Glutamine (Sigma, Ireland) (Cat# 592020C), 20 ng/ml Human Epidermal Growth Factor (Thermo Fisher Scientific, Ireland) (Cat# PHG0313), 0.01 mg/ml insulin (Thermo Fisher Scientific, Ireland)(Cat# 12585014) and 500 ng/ml hydrocortisone (Sigma, Ireland) (Cat# H0888). The cells were grown in T75 culture flasks (Sarstedt, Germany) (Cat# 83.3911.002) and were incubated in a 5% CO2 atmosphere at 37 ℃. The cells were monitored daily, and once 80–90% confluence was reached, they were subcultured with an enzymatic dissociation method using trypsin. Both cell lines were routinely subcultured for 1 week prior to beginning experimental work, to ensure the cells had adapted to the environment.
The MCF-7 and MCF-12A cells were seeded at a density of 1 × 10^4 in 96-well flat bottom plates (Sarstedt, Germany) (Cat# 83.3924) and incubated in a 5% CO2 atmosphere at 37 ℃ for 24 h prior to exposure to the complexes. Following the incubation period, the media was removed, and cells were washed with sterile phosphate-buffered saline (PBS). […] All agents were diluted in supplemented cell culture media, and the cells were exposed to a concentration range of 0.5 μM–100 μM for 24 h in the conditions outlined previously. Following the exposure period, the drug-containing media was removed, and cells were washed three times with PBS, ensuring complete removal of the test agents. A 5% working solution of Alamar Blue (Thermo Fisher Scientific, Ireland) (Cat# DAL1100) was prepared in dark conditions using unsupplemented cell culture media. 100 μl of the solution was added to each well, and the cells were incubated for 3 h. Following incubation, absorbance values were obtained using a Varioskan Lux (Thermo Scientific, USA) at 570 nm and 600 nm wavelengths. Each exposure was carried out in triplicate plates and was repeated three independent times.
The software packages Microsoft^Ⓡ Excel (USA) and GraphPad Prism (Ver. 10.0.3) (GraphPad, USA) were used to analyse the alamar blue data. The treated sample values were first normalised to the negative control values. After normalisation, the mean and standard deviations (SD) were established using Microsoft^Ⓡ Excel. The statistical analysis package GraphPad was then used to determine the IC25 and IC50 concentrations. […] A p value of 0.05 or lower is considered to be statistically significant.
(Resazurin is reduced to fluorescent resorufin, in cell work by metabolically active cells.)

Regarding `O=C([O-])CCCCCCC(=O)[O-].[Cu+2].c1cnc2c(c1)ccc1cccnc12.c1cnc2c(c1)ccc1cccnc12` [Complex 2, [Cu(oda)(phen)2]], the “Expression of caspase-3/7 (% cells)” value in data set [1] is “highest expression of caspase-3/7”.

On to `O=C([O-])CCCCCCC(=O)[O-].[Ag+].[Ag+].c1cnc2c(c1)ccc1cccnc12.c1cnc2c(c1)ccc1cccnc12.c1cnc2c(c1)ccc1cccnc12` [Complex 4, [Ag2(oda)(phen)3]], for which the “Expression of caspase-3/7 (% cells)” value in data set [2] is recorded as “highest expression”.

In the case of “{[Mn2(oda)3(phen)4]^2−[Mn2(oda)(phen)4 (H2O)2]^2+} [Complex 7]”, the ROS production result with MCF-12A cells is “markedly elevated production of ROS”. Further, the “Expression of caspase-3/7 (% cells)” value in data set [1] was “lowest expression levels of the three complexes”.

With `c1cnc2c(c1)ccc1cccnc12` [Phen, 1,10-Phenanthroline], in data set [3], the half-maximal inhibitory concentration (IC50) at 24 h came out at 20.9 ± 1.96 µM.

One may read the IC50 as the concentration that inhibits the measured activity by half.

The values above are taken from publication PMC12119673, “Apoptotic cell death induced by copper (II), manganese (II) and silver (I) complexes containing bridging dicarboxylate and 1,10-phenanthroline ligands: one of the multi-modes of anticancer activity?” (Biometals, 2025).
